# From publication PMC8518382, “Identification of a Bromodomain‐like Region in 15‐Lipoxygenase‐1 Explains Its Nuclear Localization” (Angewandte Chemie (International Ed. in English), 2021)
# Key:
# LOXs = test system: LOXs; design: method as in PMID 17942241, PMID 16500106; conditions: redox inhibitor for LOXs; read-out: IC50 in vitro; cited from earlier work
# 15-LOX-1 = target: T1, 15-LOX-1 (Homo sapiens, UniProt P16050); experiment: ABP-based ELISA assay with A549 cell lysate, 15-LOX-1; assay type: biochemical; design: the endogenous LOXs were captured on an anti‐LOX antibody precoated 96‐well plate; endogenous in cells; host or cells: A549 cell lysate
# T1 sequence (P16050 1-662): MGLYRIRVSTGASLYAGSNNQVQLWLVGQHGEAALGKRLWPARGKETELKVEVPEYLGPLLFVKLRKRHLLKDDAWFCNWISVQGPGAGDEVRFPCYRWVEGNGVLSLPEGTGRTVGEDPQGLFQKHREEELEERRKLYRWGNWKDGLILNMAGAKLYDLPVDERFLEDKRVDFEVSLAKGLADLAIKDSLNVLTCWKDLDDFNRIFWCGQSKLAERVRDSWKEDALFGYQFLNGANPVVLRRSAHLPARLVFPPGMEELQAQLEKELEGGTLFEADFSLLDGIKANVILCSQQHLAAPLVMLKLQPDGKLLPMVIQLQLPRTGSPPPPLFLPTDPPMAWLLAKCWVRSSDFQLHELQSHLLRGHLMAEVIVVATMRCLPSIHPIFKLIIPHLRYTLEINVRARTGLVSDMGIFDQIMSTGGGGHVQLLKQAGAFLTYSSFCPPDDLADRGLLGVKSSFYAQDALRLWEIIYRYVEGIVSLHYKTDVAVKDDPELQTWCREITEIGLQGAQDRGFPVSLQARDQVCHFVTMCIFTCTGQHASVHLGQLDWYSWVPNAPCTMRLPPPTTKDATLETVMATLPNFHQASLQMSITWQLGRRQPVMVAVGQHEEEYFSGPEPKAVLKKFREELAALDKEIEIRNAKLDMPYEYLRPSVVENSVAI
# Description: A549 cell lysate was treated with a serial dilution of the respective inhibitor. Subsequently, samples were labeled by treatment with 1 μM of Labelox B for 1 min. […] Data are mean±s.d., n≥3 independent experiments. […]
# 1.6. Immunoblotting Analysis […]
# 1.7. ABPP-based LOX inhibitor specificity validation
# A549 cells were lysed by RIPA buffer supplemented with 1x PIC. After sonication and centrifugation, the supernatant was collected, and the protein concentration was determined by a Pierce BCA Protein Assay Kit (Thermo Fisher Scientific, USA). The lysates were then diluted with PBS to 300 ng/µl and stored in -20°C. To label endogenous LOXs with Labelox B under the competition condition, 180 µl diluted lysates were incubated with 200 µl different LOX inhibitor solution (in PBS) with desired concentrations for 18 min to inhibit LOXs activity. Later, 20 µl of a 20 µM Labelox B (in PBS) was added and incubated shortly for 2 min, followed by adding 50 µl of a 0.5 M EDTA to stop the labeling reaction. The reaction mixture was 450 µl in total. Inhibitors and Labelox B were absent in positive and […]
# negative control, respectively. To detect the competition labeling of Labelox B among different LOXs, a high-binding 96-well plate (Greiner, #M4561) was coated with 5-LOX (#ab169755, Abcam), 12-LOX […]
# (1:500 dilution in PBS) for overnight at 4°C. After washing triply with 0.05%PBST, the plate was blocked with 2% (w/v) BSA in PBST. Subsequently, 100 µl of each reaction mixture was added to the LOX-antibody-coated wells. There are four LOX antibodies used for coating. Therefore, in total, 400 µl mixture is needed for each reaction. After one hour of incubation, LOXs were pulled down by antibodies accordingly. Next, 100 µl of HRP-conjugated streptavidin (1:2000 dilution in PBS, Thermo Fisher Scientific, USA) was added to each well to detect the D04 labeled LOXs among precipitated LOXs. After washing with PBST, 100 µl of mixed HRP substrate reagent (R&D Systems, Minneapolis, USA) was added, and the colorizing reaction was stopped by adding 100 µl of 1M sulfuric acid. The absorbance at […]
Compound,IC50 (LOXs),HillSlope Value (15-LOX-1),IC50 (15-LOX-1; 1 μM Labelox B)
O=c1cc(-c2ccccc2)oc2cc(O)c(O)c(O)c12 [Baicalein],< 4 µM,-0.47,–
c1ccc2c(c1)SCc1c-2[nH]c2ccccc12 [PD146176],–,-0.93,17.3 µM
